# System: A/WSN/33-nanoLuc or Ca/09
# Type: cell-based, influenza A virus
structure (smiles),measurement,value
"O=c1nc(NO)ccn1[C@@H]1O[C@H](CO)[C@@H](O)[C@H]1O [NHC, N^4-hydroxycytidine]",drug concentration resulting in virus extinction,≥ 4 µM
same,repeat exposure of NHC-experienced virus populations,again rapidly sterilizing

# Reference: paper PMC6848974 (Science translational medicine, 2019)
